According to patent US11897904B2, “Herbicidally active bicyclic benzamides” (Bayer Aktiengesellschaft, priority 2017, dated 2024):

Assays:
ABUTH [1] = assay: Post-emergence herbicidal action; type: in vivo, Abutilon theophrasti; details: post-emergence comparative experiment, 80 g/ha
Description: (§1) 2. Post-Emergence Herbicidal Action and Crop Plant Compatibility
(§2) Seeds of monocotyledonous and dicotyledonous weeds and crop plants are placed in sandy loam in plastic or organic planting pots, covered with soil and cultivated in a greenhouse under controlled growth conditions. 2 to 3 weeks after sowing, the test plants are treated at the one-leaf stage. The compounds of the invention, formulated in the form of wettable powders (WP) or as emulsion concentrates (EC), are then sprayed onto the green parts of the plants as aqueous suspension or emulsion with addition of 0.5% additive at a water application rate of […] (converted). After the test plants had been kept in the greenhouse under optimum growth conditions for about 3 weeks, the activity of the preparations is rated visually in comparison to untreated controls. The tables below show the herbicidal activity of numerous compounds according to the invention against important harmful plants. For example, 100% activity=the plants have died, 0% activity=like control plants.

ALOMY [2] = assay: Post-emergence herbicidal action; type: in vivo, Alopecurus myosuroides; details: post-emergence comparative experiment, 80 g/ha
Description: as §1, §2

numerous harmful plants [3] = assay: Post-emergence comparative experiment, herbicidal activity; type: in vivo
Description: as §2, with “control plants. In a comparative experiment, by way of example, the herbicidal activity of compound No. 2-53 according to the invention was compared to that of compound No. A-117 known from WO 2013/076315 A2.” for “control plants.”

ALOMY [4] = assay: Pre-emergence herbicidal action; type: in vivo, Alopecurus myosuroides; details: pre-emergence comparative experiment, 320 g/ha
Text: (§3) 1. Pre-Emergence Herbicidal Action and Crop Plant Compatibility
(§4) Seeds of monocotyledonous and dicotyledonous weed plants and crop plants are placed in plastic or organic planting pots and covered with soil. The compounds of the invention, formulated in the form of wettable powders (WP) or as emulsion concentrates (EC), are then applied onto the surface of the covering soil as aqueous suspension or emulsion with addition of 0.5% additive at a water application rate of 600 l/ha (converted). After the treatment, the pots are placed in a greenhouse and kept under good growth conditions for the trial plants. After about 3 weeks, the effect of the preparations is scored visually in comparison with untreated controls as percentages. The tables below show the herbicidal activity of numerous compounds according to the invention against important harmful plants. For example, 100% activity=the plants have died, 0% activity=like control plants.

LOLMU = assay: Post-emergence herbicidal action; type: in vivo, Lolium multiflorum; details: post-emergence comparative experiment, 80 g/ha
Description: as §1, §2

ABUTH [5] = assay: Pre-emergence herbicidal action; type: in vivo, Abutilon theophrasti; details: pre-emergence comparative experiment, 320 g/ha
Text: as §3, §4

SETVI = assay: Pre-emergence herbicidal action; type: in vivo, Setaria viridis; details: pre-emergence comparative experiment, 320 g/ha
Text: as §3, §4

POLCO = assay: Post-emergence herbicidal action; type: in vivo, Polygonum convolvulus; details: post-emergence comparative experiment, 80 g/ha
Description: as §1, §2

AVEFA [6] = assay: Post-emergence herbicidal action; type: in vivo, Avena fatua; details: post-emergence comparative experiment, 80 g/ha
Description: as §1, §2

AVEFA [7] = assay: Pre-emergence herbicidal action; type: in vivo, Avena fatua; details: pre-emergence comparative experiment, 320 g/ha
Text: as §3, §4

MATIN = assay: Pre-emergence herbicidal action; type: in vivo, Matricaria inodora; details: pre-emergence comparative experiment, 320 g/ha
Text: as §3, §4

numerous harmful plants [8] = assay: Pre-emergence comparative experiment, herbicidal activity; type: in vivo
Text: as §4, with “control plants. In a comparative experiment, by way of example, the herbicidal activity of compound No. 2-53 according to the invention was compared to that of compound No. A-117 known from WO 2013/076315 A2.” for “control plants.”

Cn1nnnc1NC(=O)c1ccc(C(F)(F)F)c2c1OCS2 [Example 2-53, 4-(trifluoromethyl)-1,3-benzoxathiolane-N-(1-methyltetrazol-5-yl)-7-carboxamide]
Herbicidal action against ABUTH (ABUTH [1]): 80%
Herbicidal action against ALOMY (ALOMY [2]): 80%
herbicidal activity compared to that of compound No. A-117 (numerous harmful plants [3]): superiority
Herbicidal action against ALOMY (ALOMY [4]): 30%
Herbicidal action against LOLMU (LOLMU): 70%
Herbicidal action against ABUTH (ABUTH [5]): 90%
Herbicidal action against SETVI (SETVI): 80%
Herbicidal action against POLCO (POLCO): 80%
Herbicidal action against AVEFA (AVEFA [6]): 100%
Herbicidal action against AVEFA (AVEFA [7]): 60%
Herbicidal action against MATIN (MATIN): 90%
herbicidal activity compared to that of compound No. A-117 (numerous harmful plants [8]): superiority
